Assay in all cases: KINOMEscan competitive binding
One assay addresses T1, PAK2 (Homo sapiens, UniProt Q13177).
T1 construct: purchased DiscoverX (KINOMEscan)
The settings on record: n=1, read-out: Percent inhibition, PAK2.

The target of a further assay is T2, PHKG1 (Homo sapiens, UniProt Q16816).
T2 construct: purchased DiscoverX (KINOMEscan)
The settings on record: n=1, read-out: Percent inhibition, PHKG1.

A further assay concerns the target T3, PHKG2 (Homo sapiens, UniProt P15735).
T3 construct: purchased DiscoverX (KINOMEscan)
T3 sequence (P15735 1-406): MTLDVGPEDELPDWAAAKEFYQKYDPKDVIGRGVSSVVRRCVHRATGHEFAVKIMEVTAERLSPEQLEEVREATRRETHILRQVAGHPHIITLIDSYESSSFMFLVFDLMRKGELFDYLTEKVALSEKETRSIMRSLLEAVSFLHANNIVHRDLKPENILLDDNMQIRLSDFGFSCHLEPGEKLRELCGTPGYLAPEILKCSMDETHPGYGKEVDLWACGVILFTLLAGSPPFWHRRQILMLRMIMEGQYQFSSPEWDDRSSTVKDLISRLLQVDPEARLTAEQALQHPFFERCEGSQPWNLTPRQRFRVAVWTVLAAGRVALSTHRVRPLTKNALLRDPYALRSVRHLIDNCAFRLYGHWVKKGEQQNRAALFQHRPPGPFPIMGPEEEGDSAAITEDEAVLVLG
The settings on record: n=1, read-out: Percent inhibition, PHKG2.

For another assay, the target named is T4, PIM2 (Homo sapiens, UniProt Q9P1W9).
T4 construct: purchased DiscoverX (KINOMEscan)
T4 sequence (Q9P1W9 whole entry): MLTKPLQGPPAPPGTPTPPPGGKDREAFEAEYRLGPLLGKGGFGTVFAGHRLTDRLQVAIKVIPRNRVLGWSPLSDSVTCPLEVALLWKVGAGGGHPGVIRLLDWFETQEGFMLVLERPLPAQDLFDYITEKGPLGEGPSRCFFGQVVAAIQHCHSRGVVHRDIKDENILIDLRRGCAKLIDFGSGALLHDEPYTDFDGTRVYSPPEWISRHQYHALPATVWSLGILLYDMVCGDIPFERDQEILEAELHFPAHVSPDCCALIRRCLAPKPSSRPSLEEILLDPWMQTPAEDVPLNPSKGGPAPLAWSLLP
The settings on record: n=1, read-out: Percent inhibition, PIM2.

A further assay concerns the target T5, PTK6 (Homo sapiens, UniProt Q13882).
T5 construct: purchased DiscoverX (KINOMEscan)
The settings on record: n=1, read-out: Percent inhibition, PTK6.

The next assay addresses T6, RIPK2 (Homo sapiens, UniProt O43353).
T6 construct: purchased DiscoverX (KINOMEscan)
The settings on record: n=1, read-out: Percent inhibition, RIPK2.

A further assay concerns the target T7, RPS6KA3(Kin.Dom.1) (Homo sapiens, UniProt P51812).
T7 construct: RPS6KA3(Kin.Dom.1); purchased DiscoverX (KINOMEscan)
The settings on record: n=1, read-out: Percent inhibition, RPS6KA3(Kin.Dom.1).

For another assay, the target named is T8, SYK (Homo sapiens, UniProt P43405).
T8 construct: purchased DiscoverX (KINOMEscan)
The settings on record: n=1, read-out: Percent inhibition, SYK.

The target in another assay is T9, TLK1 (Homo sapiens, UniProt Q9UKI8).
T9 construct: purchased DiscoverX (KINOMEscan)
T9 sequence (Q9UKI8 1-766): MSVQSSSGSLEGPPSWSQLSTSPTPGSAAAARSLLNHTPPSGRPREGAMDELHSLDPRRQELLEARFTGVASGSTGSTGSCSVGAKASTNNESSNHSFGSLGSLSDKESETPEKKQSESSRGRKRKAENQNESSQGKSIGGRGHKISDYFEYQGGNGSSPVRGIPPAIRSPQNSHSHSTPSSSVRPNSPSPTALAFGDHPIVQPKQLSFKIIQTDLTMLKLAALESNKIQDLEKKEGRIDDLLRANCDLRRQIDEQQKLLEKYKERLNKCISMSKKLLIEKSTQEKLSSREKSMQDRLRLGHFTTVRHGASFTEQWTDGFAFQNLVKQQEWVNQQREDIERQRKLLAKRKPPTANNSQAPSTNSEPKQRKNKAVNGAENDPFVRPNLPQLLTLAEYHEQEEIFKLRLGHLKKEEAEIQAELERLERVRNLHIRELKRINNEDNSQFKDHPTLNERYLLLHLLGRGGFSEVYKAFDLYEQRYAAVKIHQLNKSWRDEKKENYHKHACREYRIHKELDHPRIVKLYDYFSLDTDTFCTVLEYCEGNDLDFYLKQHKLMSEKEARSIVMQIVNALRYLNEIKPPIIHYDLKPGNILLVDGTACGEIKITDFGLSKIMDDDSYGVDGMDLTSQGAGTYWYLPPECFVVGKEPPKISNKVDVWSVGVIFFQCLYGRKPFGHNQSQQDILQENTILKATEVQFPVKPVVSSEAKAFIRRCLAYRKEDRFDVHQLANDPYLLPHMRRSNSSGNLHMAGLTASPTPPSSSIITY
The settings on record: n=1, read-out: Percent inhibition, TLK1.

The next assay deals with T10, TNK1 (Homo sapiens, UniProt Q13470).
T10 construct: purchased DiscoverX (KINOMEscan)
T10 sequence (Q13470 1-666): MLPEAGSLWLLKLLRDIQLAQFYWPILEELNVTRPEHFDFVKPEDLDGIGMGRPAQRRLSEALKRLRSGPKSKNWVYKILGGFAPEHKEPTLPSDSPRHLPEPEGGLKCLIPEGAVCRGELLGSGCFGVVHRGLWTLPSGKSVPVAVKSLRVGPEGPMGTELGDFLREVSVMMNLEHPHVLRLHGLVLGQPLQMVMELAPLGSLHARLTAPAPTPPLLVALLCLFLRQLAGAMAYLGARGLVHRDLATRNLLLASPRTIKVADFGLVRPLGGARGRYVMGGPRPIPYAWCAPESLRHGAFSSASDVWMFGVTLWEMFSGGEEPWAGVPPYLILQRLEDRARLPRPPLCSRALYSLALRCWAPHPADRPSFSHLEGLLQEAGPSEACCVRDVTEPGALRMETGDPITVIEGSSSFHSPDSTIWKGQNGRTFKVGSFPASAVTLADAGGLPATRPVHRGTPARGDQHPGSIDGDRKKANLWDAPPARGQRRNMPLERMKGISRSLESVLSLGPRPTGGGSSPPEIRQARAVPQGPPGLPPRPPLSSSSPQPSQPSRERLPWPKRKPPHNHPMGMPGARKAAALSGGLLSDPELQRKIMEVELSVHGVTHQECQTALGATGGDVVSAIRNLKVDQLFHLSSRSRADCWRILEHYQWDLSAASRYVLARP
The settings on record: n=1, read-out: Percent inhibition, TNK1.

Another assay concerns the target T11, TRKA (Homo sapiens, UniProt P04629).
T11 construct: purchased DiscoverX (KINOMEscan)
The settings on record: n=1, read-out: Percent inhibition, TRKA.

The next assay has as its target T12, YANK2 (Homo sapiens, UniProt Q9NY57).
T12 construct: purchased DiscoverX (KINOMEscan)
The settings on record: n=1, read-out: Percent inhibition, YANK2.

The target in the next assay is T13, YANK3 (Homo sapiens, UniProt Q86UX6).
T13 construct: purchased DiscoverX (KINOMEscan)
T13 sequence (Q86UX6 whole entry): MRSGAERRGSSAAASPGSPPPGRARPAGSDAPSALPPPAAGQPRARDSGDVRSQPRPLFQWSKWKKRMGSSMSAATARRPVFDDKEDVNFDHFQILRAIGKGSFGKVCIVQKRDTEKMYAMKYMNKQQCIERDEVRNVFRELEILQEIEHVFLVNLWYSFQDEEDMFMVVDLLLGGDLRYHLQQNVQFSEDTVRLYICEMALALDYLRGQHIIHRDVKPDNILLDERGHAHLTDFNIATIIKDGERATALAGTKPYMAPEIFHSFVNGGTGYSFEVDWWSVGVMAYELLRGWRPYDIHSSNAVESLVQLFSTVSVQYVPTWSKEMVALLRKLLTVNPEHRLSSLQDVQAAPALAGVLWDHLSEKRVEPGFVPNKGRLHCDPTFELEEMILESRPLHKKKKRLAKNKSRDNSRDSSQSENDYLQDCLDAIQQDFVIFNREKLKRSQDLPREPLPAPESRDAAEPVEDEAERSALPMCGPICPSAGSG
The settings on record: n=1, read-out: Percent inhibition, YANK3.

T6 sequence (O43353 whole entry): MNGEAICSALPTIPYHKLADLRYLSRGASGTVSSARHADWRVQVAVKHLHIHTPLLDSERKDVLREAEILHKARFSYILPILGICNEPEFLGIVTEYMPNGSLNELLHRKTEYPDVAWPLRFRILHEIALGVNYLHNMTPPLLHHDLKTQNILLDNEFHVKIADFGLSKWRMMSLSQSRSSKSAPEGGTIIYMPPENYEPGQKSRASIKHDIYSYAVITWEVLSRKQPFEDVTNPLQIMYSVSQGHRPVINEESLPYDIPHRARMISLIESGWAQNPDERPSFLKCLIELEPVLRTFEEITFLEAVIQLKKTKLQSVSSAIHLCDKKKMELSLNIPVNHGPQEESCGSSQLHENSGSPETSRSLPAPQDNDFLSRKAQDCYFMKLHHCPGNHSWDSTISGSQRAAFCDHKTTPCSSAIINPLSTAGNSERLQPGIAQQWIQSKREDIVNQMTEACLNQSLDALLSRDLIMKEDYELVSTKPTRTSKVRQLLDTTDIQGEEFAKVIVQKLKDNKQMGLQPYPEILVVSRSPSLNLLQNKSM
T1 sequence (Q13177 whole entry): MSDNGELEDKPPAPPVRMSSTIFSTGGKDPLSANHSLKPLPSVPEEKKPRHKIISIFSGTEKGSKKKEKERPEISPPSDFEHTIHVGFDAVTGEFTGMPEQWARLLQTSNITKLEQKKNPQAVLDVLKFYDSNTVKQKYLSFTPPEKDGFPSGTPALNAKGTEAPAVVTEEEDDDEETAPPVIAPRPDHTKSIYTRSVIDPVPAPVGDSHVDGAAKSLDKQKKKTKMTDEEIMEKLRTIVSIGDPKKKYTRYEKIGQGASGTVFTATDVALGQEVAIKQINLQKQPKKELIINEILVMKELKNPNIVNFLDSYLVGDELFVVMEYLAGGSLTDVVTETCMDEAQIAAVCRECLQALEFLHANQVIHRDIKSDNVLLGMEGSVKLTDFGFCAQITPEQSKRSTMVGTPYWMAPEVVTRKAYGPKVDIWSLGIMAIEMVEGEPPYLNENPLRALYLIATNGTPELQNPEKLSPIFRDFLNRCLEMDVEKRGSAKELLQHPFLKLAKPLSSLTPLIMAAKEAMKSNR
T5 sequence (Q13882 whole entry): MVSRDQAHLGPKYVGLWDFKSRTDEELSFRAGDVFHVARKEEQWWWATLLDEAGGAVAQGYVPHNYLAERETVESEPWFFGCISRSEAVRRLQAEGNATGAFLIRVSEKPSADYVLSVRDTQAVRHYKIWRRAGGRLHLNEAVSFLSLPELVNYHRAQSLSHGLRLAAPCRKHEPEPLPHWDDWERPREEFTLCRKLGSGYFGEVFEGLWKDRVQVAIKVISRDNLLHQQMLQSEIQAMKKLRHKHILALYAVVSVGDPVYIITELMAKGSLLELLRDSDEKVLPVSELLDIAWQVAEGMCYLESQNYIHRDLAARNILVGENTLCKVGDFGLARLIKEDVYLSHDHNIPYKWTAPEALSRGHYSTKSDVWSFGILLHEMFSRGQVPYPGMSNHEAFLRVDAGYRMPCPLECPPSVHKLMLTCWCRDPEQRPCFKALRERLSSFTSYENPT
T2 sequence (Q16816 whole entry): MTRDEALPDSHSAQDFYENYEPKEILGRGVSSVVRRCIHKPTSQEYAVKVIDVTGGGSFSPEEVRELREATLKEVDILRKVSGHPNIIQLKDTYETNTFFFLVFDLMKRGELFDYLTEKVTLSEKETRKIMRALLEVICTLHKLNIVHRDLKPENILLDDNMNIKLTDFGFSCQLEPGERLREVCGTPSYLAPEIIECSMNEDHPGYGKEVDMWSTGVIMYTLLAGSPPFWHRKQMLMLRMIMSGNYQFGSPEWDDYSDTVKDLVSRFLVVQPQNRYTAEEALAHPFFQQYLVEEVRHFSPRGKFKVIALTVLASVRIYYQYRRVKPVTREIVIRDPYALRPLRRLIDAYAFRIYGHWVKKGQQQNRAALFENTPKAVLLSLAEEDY
T7 sequence (P51812 1-397 limits assumed): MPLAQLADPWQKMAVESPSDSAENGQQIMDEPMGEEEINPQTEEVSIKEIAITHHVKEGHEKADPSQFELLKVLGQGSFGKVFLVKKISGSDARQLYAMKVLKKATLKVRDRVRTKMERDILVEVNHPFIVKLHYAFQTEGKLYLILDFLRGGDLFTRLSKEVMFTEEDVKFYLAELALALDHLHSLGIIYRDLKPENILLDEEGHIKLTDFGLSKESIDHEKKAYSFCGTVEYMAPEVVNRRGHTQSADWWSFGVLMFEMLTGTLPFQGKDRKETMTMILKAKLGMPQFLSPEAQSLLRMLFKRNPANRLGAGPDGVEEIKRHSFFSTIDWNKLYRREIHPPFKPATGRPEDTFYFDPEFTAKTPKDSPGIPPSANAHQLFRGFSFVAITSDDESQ
T11 sequence (P04629 33-796): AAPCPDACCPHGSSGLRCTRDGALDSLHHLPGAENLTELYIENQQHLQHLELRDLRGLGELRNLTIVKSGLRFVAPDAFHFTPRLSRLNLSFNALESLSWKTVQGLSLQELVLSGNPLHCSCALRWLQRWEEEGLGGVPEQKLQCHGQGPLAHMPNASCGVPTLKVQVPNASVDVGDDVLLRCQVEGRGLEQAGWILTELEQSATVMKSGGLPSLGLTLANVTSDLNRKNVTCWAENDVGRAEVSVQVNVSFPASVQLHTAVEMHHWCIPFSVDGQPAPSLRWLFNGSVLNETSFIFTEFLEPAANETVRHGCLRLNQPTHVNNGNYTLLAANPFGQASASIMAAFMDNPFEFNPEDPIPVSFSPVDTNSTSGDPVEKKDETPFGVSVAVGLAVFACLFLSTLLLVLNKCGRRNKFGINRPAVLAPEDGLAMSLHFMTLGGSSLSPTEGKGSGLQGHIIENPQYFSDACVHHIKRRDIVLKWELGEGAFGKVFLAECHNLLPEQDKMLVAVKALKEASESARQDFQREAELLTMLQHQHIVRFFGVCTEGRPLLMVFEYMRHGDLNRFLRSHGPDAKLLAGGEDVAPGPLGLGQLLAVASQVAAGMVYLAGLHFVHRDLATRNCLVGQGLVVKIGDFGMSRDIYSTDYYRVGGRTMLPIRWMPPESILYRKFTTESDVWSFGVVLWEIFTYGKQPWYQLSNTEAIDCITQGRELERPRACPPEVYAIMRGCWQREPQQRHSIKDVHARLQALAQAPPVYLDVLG
T12 sequence (Q9NY57 whole entry): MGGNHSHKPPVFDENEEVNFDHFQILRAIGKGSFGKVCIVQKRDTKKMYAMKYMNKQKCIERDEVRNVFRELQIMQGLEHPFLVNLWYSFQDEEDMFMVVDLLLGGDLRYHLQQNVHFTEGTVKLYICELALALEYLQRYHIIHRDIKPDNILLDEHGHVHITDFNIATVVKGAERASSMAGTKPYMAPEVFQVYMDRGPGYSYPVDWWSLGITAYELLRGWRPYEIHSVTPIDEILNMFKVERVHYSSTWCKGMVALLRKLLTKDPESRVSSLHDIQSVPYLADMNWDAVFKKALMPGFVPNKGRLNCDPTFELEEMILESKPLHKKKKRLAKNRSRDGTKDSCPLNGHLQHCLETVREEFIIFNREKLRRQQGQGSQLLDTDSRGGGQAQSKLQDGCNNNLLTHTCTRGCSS

On to `COc1cc(Nc2nccc(-c3sc(N)nc3-c3cccc(NC(=O)c4c(F)cccc4F)c3)n2)cc(OC)c1OC` [Compound 7], for which the inhibition at 10 µM on PAK2 is 90%; at PHKG1, 0%; on PHKG2 it was 0%; on PIM2 it was 0%; at PTK6, 100%; on RIPK2 it was 100%. Besides, the inhibition at 10 µM on RPS6KA3(Kin.Dom.1) came out at 99.8%; at SYK, 98.9%; at TLK1 it was 0%; at TNK1, 100%; on TRKA, 0%; at YANK2 it was 93%. Besides, the inhibition at 10 µM on YANK3 was 94.8%.

The values above are taken from publication PMC9927415, “Tyrosine Kinase Inhibitors Display Potent Activity against Cryptosporidium parvum” (Microbiology Spectrum, 2022).
